Measurements from US5789405A, “Oxaspiro(2,5)octane derivative” (Fujisawa Pharmaceutical Co., Ltd., priority 1988, dated 1998).
In brackets after ≈: the same amount, converted by molar mass.

System: Endothelial cells from human umbilical vein (HUVEC)
Assay: Test effect on endothelial cell growth (HUVEC proliferation, MTT method)
Format: cell-based
Conditions: 120 h, 5 days incubation at 37° C., graphically determined, read-out: IC50 (50% inhibition doses of the test compound to endothelial cell growth)
Experimental: Test effect of the object compound (I) on endothelial cell growth
Endothelial cells from human umbilical vein (HUVEC) were used for this experiment.
HUVEC (2×10^3 cells per well) were plated on 96 wells microtiter plates previously coated with human fibronectin and incubated with MCDB 151 [GIBCO] medium supplemented with 15% FBS (fetal bovine serum), […] ECGS (Endothelial cell growth supplement), 10 μg/ml heparin in the presence of the test compound at 37° C. under 5% CO2 in the air for 5 days. At the end of the experiments, the growth rate of HUVEC was measured according to the MTT method [Cancer treatment Reports 71, 1141~1149 (1987)].
IC50 values [50% inhibition doses of the test compound to endothelial cell growth) of the test compound were graphically determined and are shown in the following table.

Structure (SMILES) | IC50 [ng/mL]
COC1C(OC(=O)N2CCOCC2)CCC2(CO2)C1C1(C)OC1CC=C(C)C (centres unmarked) | 0.62 (≈ 1.57 nM)
CNC(=O)OC1CCC2(CO2)C(C2(C)OC2CC=C(C)C)C1OC (centres unmarked) | 0.21 (≈ 0.619 nM)
